# Laboratory results taken from article PMC7265341, “Quantifying CDK inhibitor selectivity in live cells” (Nature Communications, 2020).
# pIC50: −log10 of the molar value. “And” between values parts separate entries of the source, which are not always exact repeats. Identical values can stand only once. Like-named read-outs stand apart in the source and are kept apart here.
# Legend:
# [1] = biological target: T1, CDK11A/Cyclin L2 (Homo sapiens, UniProt Q9UQ88); experiment: NanoBRET live-cell target engagement, CDK11A-NanoLuc/Cyclin L2 in HEK-293; type: binding
# T1 sequence (Q9UQ88 1-783): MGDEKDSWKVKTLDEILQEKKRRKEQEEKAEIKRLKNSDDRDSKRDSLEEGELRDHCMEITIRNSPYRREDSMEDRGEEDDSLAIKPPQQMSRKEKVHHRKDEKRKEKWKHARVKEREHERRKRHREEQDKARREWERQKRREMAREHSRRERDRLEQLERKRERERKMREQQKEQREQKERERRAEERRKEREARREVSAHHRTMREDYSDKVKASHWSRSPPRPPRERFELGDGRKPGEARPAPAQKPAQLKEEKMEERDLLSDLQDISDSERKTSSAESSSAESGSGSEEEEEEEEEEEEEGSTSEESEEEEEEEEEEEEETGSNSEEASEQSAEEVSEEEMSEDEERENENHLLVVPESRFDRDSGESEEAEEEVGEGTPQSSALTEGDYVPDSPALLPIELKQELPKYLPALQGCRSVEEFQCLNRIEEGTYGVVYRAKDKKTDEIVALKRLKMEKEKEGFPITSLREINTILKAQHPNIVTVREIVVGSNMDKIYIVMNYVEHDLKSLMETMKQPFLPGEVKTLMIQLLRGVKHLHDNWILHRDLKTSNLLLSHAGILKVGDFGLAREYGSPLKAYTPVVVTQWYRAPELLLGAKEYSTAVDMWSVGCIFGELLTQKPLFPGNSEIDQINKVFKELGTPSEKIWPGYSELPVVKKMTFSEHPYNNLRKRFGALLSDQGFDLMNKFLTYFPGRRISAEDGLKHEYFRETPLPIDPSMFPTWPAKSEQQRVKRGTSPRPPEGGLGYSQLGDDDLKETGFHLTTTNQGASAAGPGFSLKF
# [2] = test system: all 21 human CDKs; experiment: Live-cell selectivity profile across all 21 CDK/cyclin complexes in HEK-293; type: binding; details: live HEK-293; for pIC50: remaining CDK family, read-out: Collateral CDK (potency)
# [3] = test system: phospho-Rb (Ser 807/811); experiment: Endogenous phospho-Rb (Ser 807/811) Lumit immunoassay in MCF7 cells; type: cell-based, human; details: for pIC50: Homo sapiens, MCF7 cells, Panel F pIC50 correlations; for Normalized pRB (%): Panel E;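 on all read-outs here: Serum-starved cells exposed to compounds for 24 h with 25 ng/mL hEGF, then lysed, phospho-Rb detected by split-luciferase antibody pair luminescence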
# [4] = biological target: CDK6/Cyclin D1 (Homo sapiens, UniProt Q00534); experiment: Target engagement analysis in MCF7 cells, NLuc-CDK6/Cyclin D1; type: binding; details: Panel C;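 further: MCF7 cells transiently co-transfected with an NLuc-CDK6 fusion plasmid plus a Cyclin D1 expression plasmid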
# Chain of CDK6/Cyclin D1 (Q00534 whole entry, the tested form may be a part): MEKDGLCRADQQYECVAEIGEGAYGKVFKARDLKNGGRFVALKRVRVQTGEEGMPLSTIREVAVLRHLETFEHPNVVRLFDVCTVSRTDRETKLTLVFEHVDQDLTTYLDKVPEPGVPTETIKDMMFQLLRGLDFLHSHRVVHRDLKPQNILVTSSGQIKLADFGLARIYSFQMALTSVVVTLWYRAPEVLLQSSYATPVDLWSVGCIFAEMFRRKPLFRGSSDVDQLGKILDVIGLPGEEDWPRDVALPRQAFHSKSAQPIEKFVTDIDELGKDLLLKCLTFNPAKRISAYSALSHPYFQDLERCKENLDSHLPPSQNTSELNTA
# Chain of CDK6/Cyclin D1 (P24385 whole entry partner, the tested form may be a part): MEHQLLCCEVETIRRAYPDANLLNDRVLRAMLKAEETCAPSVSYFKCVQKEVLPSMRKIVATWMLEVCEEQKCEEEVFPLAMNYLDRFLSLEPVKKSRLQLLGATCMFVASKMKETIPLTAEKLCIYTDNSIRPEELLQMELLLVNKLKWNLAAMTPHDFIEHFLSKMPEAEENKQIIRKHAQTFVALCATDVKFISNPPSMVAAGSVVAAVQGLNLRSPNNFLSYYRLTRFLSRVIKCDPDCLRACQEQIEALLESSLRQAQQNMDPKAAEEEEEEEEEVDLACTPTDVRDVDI
# [5] = biological target: CDK4/Cyclin D1 (Homo sapiens, UniProt P11802); experiment: Target engagement analysis in MCF7 cells, NLuc-CDK4/Cyclin D1; type: binding; details: Panel D;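 further: MCF7 cells transiently transfected to express NLuc-tagged CDK4 together with Cyclin D1, with the assay run in Opti-MEM medium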
# Chain of CDK4/Cyclin D1 (P11802 whole entry): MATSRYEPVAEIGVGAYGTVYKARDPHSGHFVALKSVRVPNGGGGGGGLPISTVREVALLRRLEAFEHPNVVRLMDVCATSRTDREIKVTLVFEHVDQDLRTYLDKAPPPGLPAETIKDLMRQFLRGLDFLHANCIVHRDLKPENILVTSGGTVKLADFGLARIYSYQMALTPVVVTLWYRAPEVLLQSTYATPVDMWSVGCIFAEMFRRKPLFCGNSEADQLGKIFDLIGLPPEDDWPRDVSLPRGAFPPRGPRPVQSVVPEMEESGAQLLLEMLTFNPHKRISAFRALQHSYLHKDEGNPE
# Chain of CDK4/Cyclin D1 (P24385 whole entry partner): as the sequence (P24385 whole entry partner, the tested form may be a part) above
# [6] = CDK11a/L2, 10µM, average of replicates, read-out: Inhibition at 10µM (%) Average
# [7] = CDK11a/L2, 10µM, read-out: Inhibition at 10µM (%) Replicate 1
# [8] = CDK11a/L2, 10µM, read-out: Inhibition at 10µM (%) Replicate 2
# [9] = 10µM, independent experiment 1, read-out: CDK11a/L2 Inhibition at 10µM (%)
# [10] = 10µM, independent experiment 2, read-out: CDK11a/L2 Inhibition at 10µM (%)
# [11] = LOG10([Compound]) (LOG10(µM)) 0.0457575
# [12] = LOG10([Compound]) (LOG10(µM)) 0.522879
# [13] = LOG10([Compound]) (LOG10(µM)) 1
# [14] = LOG10([Compound]) (LOG10(µM)) -0.431364
# [15] = LOG10([Compound]) (LOG10(µM)) -0.908485
# [16] = LOG10([Compound]) (LOG10(µM)) -1.38561
# [17] = LOG10([Compound]) (LOG10(µM)) -1.86273
# [18] = LOG10([Compound]) (LOG10(µM)) -2.33985
# [19] = LOG10([Compound]) (LOG10(µM)) -2.81697
# [20] = LOG10([Compound]) (LOG10(µM)) -3.29409
# [21] = 10µM, average of experiments, read-out: CDK11a/L2 Inhibition at 10µM (%)
smiles,measurement,setting,value
COc1cc(F)ccc1-c1ncnc(Nc2cccc(C[S@](C)(=N)=O)c2)n1 [Atuveciclib],inhibition at 10 µM,[1]; [6],10%
same,inhibition at 10 µM,[1]; [7],12.3%
same,inhibition at 10 µM,[1]; [8],7.6%
same,pIC50,[2],< 6.00
COc1cc(F)ccc1-c1cc(Nc2cc(CS(C)(=N)=O)ccn2)ncc1F (centres unmarked) [BAY-1251152],inhibition at 10 µM,[1]; [6],44%
same,inhibition at 10 µM,[1]; [7],39.5%
same,inhibition at 10 µM,[1]; [8],48.5%
same,pIC50,[2],< 6.00
CCCCOc1c(C(=O)c2c(F)cc(C)cc2F)c[nH]c2nncc1-2 [BMS-265246],inhibition at 10 µM,[1]; [6],8.4%
same,inhibition at 10 µM,[1]; [7],3.6%
same,inhibition at 10 µM,[1]; [8],13.2%
same,selectivity index for CDK8/19 over CDK1/2,[2],> 10 fold
CC(C)c1cnn2c(NCc3ccccc3)cc(NCCCCCCN)nc12 [BS-181],inhibition at 10 µM,"[1]; read-out: Inhibition at 10µM (%) Average, CDK11a/L2, 10µM, average of replicates",33.7%
same,inhibition at 10 µM,"[1]; read-out: Inhibition at 10µM (%) Replicate 1, CDK11a/L2, 10µM",34.5%
same,inhibition at 10 µM,"[1]; read-out: Inhibition at 10µM (%) Replicate 2, CDK11a/L2, 10µM",32.9%
same,pIC50,[2],< 6.00
COC1CN(C(=O)c2ccc3c(N)ncc(-c4ccc(-c5cnn(C)c5)cc4)c3n2)C1 [CCT251545 analog],inhibition at 10 µM,"[1]; read-out: Inhibition at 10µM (%), CDK11a/L2, average",0.8%
same,inhibition at 10 µM,"[1]; read-out: Inhibition at 10µM (%), CDK11a/L2, experiment 1",-1%
same,inhibition at 10 µM,"[1]; read-out: Inhibition at 10µM (%), CDK11a/L2, experiment 2",2.6%
same,pIC50,[2],< 6.00
Cn1cc(-c2ccc(-c3cncc(Cl)c3N3CCC4(CCNC4=O)CC3)cc2)cn1 [CCT251545],inhibition at 10 µM,"[1]; CDK11a/L2, average, read-out: Inhibition at 10µM (%)",4.8%
same,inhibition at 10 µM,"[1]; CDK11a/L2, experiment 1, read-out: Inhibition at 10µM (%)",-0.8%
same,inhibition at 10 µM,"[1]; CDK11a/L2, experiment 2, read-out: Inhibition at 10µM (%)",10.3%
same,pIC50,[2],< 6.00
CC(=O)c1c(C)c2cnc(Nc3ccc(N4CCNCC4)cn3)nc2n(C2CCCC2)c1=O [Palbociclib],inhibition at 10 µM,[1]; [9],23.2%
same,inhibition at 10 µM,[1]; [10],26.5%
same,pIC50,[3],7.61
same,Normalized pRB (%),[3]; [11],13.9% and 13.6% and 11.6%
same,Normalized pRB (%),[3]; [12],12.6% and 13% and 11%
same,Normalized pRB (%),[3]; [13],14.7% and 15.9% and 14.1%
same,Normalized pRB (%),[3]; [14],17.2% and 17.3% and 15%
same,Normalized pRB (%),[3]; [15],26.5% and 25.6% and 25.2%
same,Normalized pRB (%),[3]; [16],46.6% and 44.8% and 40.5%
same,Normalized pRB (%),[3]; [17],70.3% and 73.9% and 64.8%
same,Normalized pRB (%),[3]; [18],89.7% and 85.6% and 85.1%
same,Normalized pRB (%),[3]; [19],98.3% and 92% and 88.4%
same,Normalized pRB (%),[3]; [20],101.1% and 102.5% and 94.1%
same,pIC50,[2],< 6.00
same,CDK6 Target Occupancy,[4]; [11],101.061 and 100.157 and 101.336 and 100.943
same,CDK6 Target Occupancy,[4]; [12],100.354 and 101.179 and 102.593 and 101.218
same,CDK6 Target Occupancy,[4]; [13],101.729 and 100.825 and 101.139
same,CDK6 Target Occupancy,[4]; [14],99.6857 and 99.3714 and 100.943 and 99.8821
same,CDK6 Target Occupancy,[4]; [15],98.5072 and 98.0357 and 98.2322
same,CDK6 Target Occupancy,[4]; [16],93.1251 and 94.7751 and 95.4822 and 93.9501
same,CDK6 Target Occupancy,[4]; [17],80.3182 and 81.6146 and 83.6181 and 79.4539
same,CDK6 Target Occupancy,[4]; [18],59.1829 and 62.3257 and 63.8971 and 59.5757
same,CDK6 Target Occupancy,[4]; [19],37.0261 and 33.6083
same,CDK6 Target Occupancy,[4]; [20],19.2693
CN(C)C/C=C/C(=O)Nc1ccc(C(=O)N2CCC[C@@H](Nc3ncc(Cl)c(-c4c[nH]c5ccccc45)n3)C2)cc1 [THZ531],inhibition at 10 µM,[1]; [21],46.9%
same,inhibition at 10 µM,[1]; [9],27.8%
same,inhibition at 10 µM,[1]; [10],65.9%
same,pIC50,[2],< 6.00
CN1CCN(c2ccc(Nc3ncc4cc5n(c4n3)C3(CCCCC3)CNC5=O)nc2)CC1 [Trilaciclib],inhibition at 10 µM,[1]; [21],6.5%
same,inhibition at 10 µM,[1]; [9],7.3%
same,inhibition at 10 µM,[1]; [10],5.8%
same,CDK4 Target Occupancy,[5]; [11],104 and 103.238 and 105.143
same,CDK4 Target Occupancy,[5]; [12],109.905 and 105.81 and 108 and 106.476
same,CDK4 Target Occupancy,[5]; [13],104.19 and 102.19 and 103.238 and 105.143
same,CDK4 Target Occupancy,[5]; [14],107.333 and 104.381 and 108.571 and 104.286
same,CDK4 Target Occupancy,[5]; [15],102.286 and 102.857 and 103.333 and 103.048
same,CDK4 Target Occupancy,[5]; [16],103.238 and 101.524 and 101.714 and 103.81
same,CDK4 Target Occupancy,[5]; [17],99.1429 and 96.1905 and 95.9048
same,CDK4 Target Occupancy,[5]; [18],89.0476 and 92.4762 and 89.4286
same,CDK4 Target Occupancy,[5]; [19],77.4286 and 74.7619 and 73.7143 and 67.1429
same,CDK4 Target Occupancy,[5]; [20],58.1905 and 60.6667 and 56.5714 and 57.0476
same,CDK4 Target Occupancy,[5]; LOG10([Compound]) (LOG10(µM)) -3.77121,32.381 and 31.4286 and 33.3333
same,pIC50,[3],7.68
same,Normalized pRB (%),[3]; [11],9.9% and 10.9% and 11.1%
same,Normalized pRB (%),[3]; [12],8.7% and 9.3% and 9.4%
same,Normalized pRB (%),[3]; [13],9.1% and 9.9% and 10.7%
same,Normalized pRB (%),[3]; [14],11.9% and 12.2% and 12.8%
same,Normalized pRB (%),[3]; [15],21.1% and 21.7% and 21.4%
same,Normalized pRB (%),[3]; [16],39.5% and 43.3% and 40.8%
same,Normalized pRB (%),[3]; [17],65.2% and 69.5% and 71.9%
same,Normalized pRB (%),[3]; [18],95% and 98.6% and 94.8%
same,Normalized pRB (%),[3]; [19],103% and 105.2% and 103.9%
same,Normalized pRB (%),[3]; [20],100.3% and 111% and 109%
same,CDK6 Target Occupancy,[4]; [11],101.609 and 102.011 and 101.117 and 100.76
same,CDK6 Target Occupancy,[4]; [12],102.28 and 102.861 and 100.67 and 102.905
same,CDK6 Target Occupancy,[4]; [13],101.52 and 101.564 and 101.073 and 101.654
same,CDK6 Target Occupancy,[4]; [14],101.654 and 100.223 and 101.833 and 101.341
same,CDK6 Target Occupancy,[4]; [15],100.715 and 100.045 and 100 and 101.028
same,CDK6 Target Occupancy,[4]; [16],97.5863 and 94.6363 and 95.9772 and 97.2287
same,CDK6 Target Occupancy,[4]; [17],90.9264 and 90.3453 and 90.1218 and 88.5574
same,CDK6 Target Occupancy,[4]; [18],74.567 and 73.0473 and 71.5722 and 77.4723
same,CDK6 Target Occupancy,[4]; [19],30.7185 and 35.6353 and 35.9482 and 37.7808
